Results on nine compounds are retold here after US20240409542A1, “NOVEL COMPOUNDS” (Sitryx Therapeutics Limited, priority 2021, published 2024).

Converted amounts (≈) assume the structure as drawn. Where two headings read alike, the source gives them in different places. Marks after values point to notes of the source that are not given here. Bounds are passed on as bounds.

In one series the target is recombinant human PKM2 (Homo sapiens (Human), UniProt P14618). Briefly: Human PKM2 activation assay (Kinase-Glo Plus luminescence). It counts as biochemical. The following applies: for EC50: activation of recombinant human PKM2, 4-parameter logistic fit, read-out: hPKM2 EC50; for Emax: read-out: hPKM2 Emax (%). On the procedure:
Compound activation of recombinant human PKM2 pyruvate kinase activity was determined by biochemical assay. N-terminal His-tagged hPKM2 was sourced from R&D Systems and its substrates phosphoenolpyruvate (PEP) and ADP from Sigma-Aldrich and 2BScientific Ltd, respectively. The Kinase-Glo® Plus luminescence assay was from Promega. All other reagents were from Sigma-Aldrich. Test Compounds were prepared as 10 mM DMSO stocks and dilution series prepared in DMSO for direct dilution into Assay Buffer comprising 50 mM imidazole, 50 mM KCl, 7 mM MgCl2, 0.01% Tween20, 0.05% BSA (pH 7.2).
Human PKM2 was diluted into Assay Buffer comprising 50 mM imidazole, 50 mM KCl, 7 mM MgCl2, 0.01% Tween20, 0.05% BSA (pH 7.2) to a final concentration of 5 pM. Enzyme-Assay Buffer mix was dispensed into a 384-well shallow-well white-walled plate (PerkinElmer) and Test Compounds added by acoustic dispense (Echo®, Labcyte Inc.).
After 60 minutes' incubation on an orbital shaker (300 rpm, 26° C.), enzyme activity was quantified by the luminescent detection of generated ATP. Kinase-Glo® Plus reagent was added to each well and the plates incubated for a further 15 minutes on an orbital shaker in the dark (300 rpm, 26° C.) before luminescence measurement on a plate reader (PHERAstar® FSX, BMG Labtech).
EC50 and Emax values were determined from 4-parameter logistic fits of compound concentration-response curves.

A further series concerns A549 cells. Briefly: A549 proliferation assay in low-serine medium (CellTiter-Glo). Format: cell-based. The following applies: Homo sapiens, 72 h, 3 days, low-serine medium (20 μM L-serine). On the procedure: The effect of compounds of Formula (I) on A549 cell proliferation in low-serine medium was assessed using a luminescence assay of viable cell number (CellTiter-Glo® 2.0, Promega) duplexed with a fluorescent cytotoxicity assessment (CellTox™ Green, Promega). Cell culture reagents were from ThermoFisher unless specified otherwise. Assay reagents were from Sigma-Aldrich unless specified otherwise. Test Compounds were prepared as 10 mM DMSO stocks and dilution series prepared in DMSO for direct dilution into culture medium.
Cells were passaged every 3-4 days at 80-90% confluence. The cell monolayer was washed twice with room-temperature Ca^2+/Mg-free PBS and 4 ml room-temperature trypsin-EDTA added to the flask. After 5 minutes' incubation (37° C., 5% CO2) to detach cells, trypsin was quenched with 13 ml warmed complete growth medium and the cells harvested and diluted to 2.4×10^4 cells/ml for dispensing into 384-well clear-bottom black-walled plates (600 cells/well).
Following overnight incubation, growth medium was aspirated from each well and the cells washed twice with Assay Medium comprising Basal Medium Eagle supplemented with 3% heat-inactivated dialysed FBS plus 2 mM L-glutamine plus 20 μM L-serine (Sigma-Aldrich). After aspiration of the final wash medium, Assay Medium containing Test Compound was added to each well. DMSO vehicle controls were included on each plate.
Cells were incubated for 3 days in a humidified incubator (37° C., 5% CO2) at which point CellTox™ Green and CellTiter-Glo® reagents were prepared according to the manufacturer's instructions. Triton-X was added to HIGH wells for cytotoxicity determination and the plate incubated for 30 minutes (20° C., ambient humidity and pCO2). CellTox™ Green reagent was added to each well and the plate covered, placed on an orbital shaker @450 rpm for 2 minutes, and incubated in the dark for 15 minutes (20° C., ambient humidity and pCO2). Endpoint fluorescence was measured using a plate reader (PHERAstar® FSX, BMG Labtech).
Following cytotoxicity determination, CellTiter-Glo® reagent was added to each well and the plate placed on an orbital shaker @450 rpm for 2 minutes to lyse cells. Plates were incubated in the dark for 15-30 minutes (20° C., ambient humidity and pCO2) prior to endpoint luminescence measurement (PHERAstar® FSX, BMG Labtech).
Proliferation was calculated by normalizing luminescence signals to LOW controls obtained from a parallel plate processed at the time of Test Compound challenge and HIGH (DMSO vehicle) wells from the compound plate. IC50 values were determined from a 4-parameter logistic fit of compound concentration-response curves.
On the technique in general: ATP-based viability assays read luminescence as a measure of living cells.

For another series, the target named is recombinant human PKLR (Homo sapiens (Human), UniProt P30613). Briefly: Human PKLR activation assay (Kinase-Glo Plus luminescence). The note with it: for Emax: read-out: hPKLR Emax (%).
Sequence of recombinant human PKLR (P30613 whole entry): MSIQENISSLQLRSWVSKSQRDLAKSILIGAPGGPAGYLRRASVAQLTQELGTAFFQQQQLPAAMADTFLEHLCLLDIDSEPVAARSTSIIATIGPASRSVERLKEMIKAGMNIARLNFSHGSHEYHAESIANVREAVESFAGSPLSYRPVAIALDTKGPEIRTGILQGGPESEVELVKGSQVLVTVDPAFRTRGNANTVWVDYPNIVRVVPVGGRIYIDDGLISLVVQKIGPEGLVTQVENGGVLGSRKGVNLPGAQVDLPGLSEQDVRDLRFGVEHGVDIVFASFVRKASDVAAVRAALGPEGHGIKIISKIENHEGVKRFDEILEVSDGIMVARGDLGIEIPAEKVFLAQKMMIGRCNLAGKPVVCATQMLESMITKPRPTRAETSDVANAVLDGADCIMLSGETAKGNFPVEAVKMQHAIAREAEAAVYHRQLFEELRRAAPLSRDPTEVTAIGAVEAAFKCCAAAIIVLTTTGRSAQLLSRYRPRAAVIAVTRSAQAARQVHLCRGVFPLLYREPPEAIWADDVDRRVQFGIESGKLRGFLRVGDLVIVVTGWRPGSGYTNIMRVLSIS
The nature of series [1]: Kinetic aqueous solubility. The note with it: PBS pH 7.4, 200 μM (2% DMSO), RT; for solubility kinetic at 1.5 h: phosphate buffered saline (PBS) pH 7.4, pH 7.4, aqueous buffer, kinetic from dmso stock, Kinetic solubility (Ksol), (μg/ml).
Protocol: (§1) Phosphate buffered saline (PBS) pH 7.4 was prepared using PBS tablets as per the manufacturer's instructions. Compounds and marker stocks are prepared at 10 mM in DMSO.
(§2) Compounds were incubated at 200 μM (2% DMSO) in Millipore—MSS LB PC 10 or Porvair—ref: 36004 plates in the presence of the prepared PBS pH 7.4 solution for 1.5 h, at RT, with gentle shaking. […] The samples were then analysed in a 96 well UV Star analysis plate on a plate reader from 220 nm to 500 nm at 10 nm increments.
(§3) The concentration of the samples was calculated against the standard curves.
The conditions of series [2]: pH 7.4.
Protocol: as §1, §2, §3

Sequence of recombinant human PKM2 (P14618 whole entry): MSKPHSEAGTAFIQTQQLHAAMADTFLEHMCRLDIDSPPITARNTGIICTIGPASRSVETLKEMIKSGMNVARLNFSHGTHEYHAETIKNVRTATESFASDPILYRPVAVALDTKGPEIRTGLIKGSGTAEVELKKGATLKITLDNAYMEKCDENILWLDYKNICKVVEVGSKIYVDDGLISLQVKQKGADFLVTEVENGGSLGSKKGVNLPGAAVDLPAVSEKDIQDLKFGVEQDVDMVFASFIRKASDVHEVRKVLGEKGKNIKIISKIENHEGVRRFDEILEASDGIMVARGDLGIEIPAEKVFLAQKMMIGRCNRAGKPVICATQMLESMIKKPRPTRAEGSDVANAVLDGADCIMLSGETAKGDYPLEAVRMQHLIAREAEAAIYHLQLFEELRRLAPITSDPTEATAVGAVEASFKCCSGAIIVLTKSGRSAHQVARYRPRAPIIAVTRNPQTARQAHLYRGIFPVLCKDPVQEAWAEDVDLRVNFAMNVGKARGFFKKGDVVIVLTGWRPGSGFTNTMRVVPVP
Protocol for recombinant human PKLR: Compound activation of recombinant human PKLR pyruvate kinase activity was determined by biochemical assay. N-terminal His-tagged enzyme was sourced from R&D Systems and its substrates phosphoenolpyruvate (PEP) and ADP from Sigma-Aldrich and 2BScientific Ltd, respectively. The Kinase-Glo® Plus luminescence assay was from Promega. All other reagents were from Sigma-Aldrich. Test Compounds were prepared as 10 mM DMSO stocks and dilution series prepared in DMSO for direct dilution into Assay Buffer comprising 50 mM imidazole, 50 mM KCl, 7 mM MgCl2, 0.01% Tween20, 0.05% BSA (pH 7.2).
Human PKLR was diluted into Assay Buffer to a final concentration of 5 pM. Enzyme-Assay Buffer mix was dispensed into 384-well shallow-well white-walled plates and Test Compounds added by acoustic dispense (Echo®, Labcyte Inc).

One may read the EC50 as the concentration at which the effect is half-maximal. One may read the Emax as the maximal effect, on the per cent scale that the assay sets. By IC50 is commonly meant the point on the concentration scale where inhibition reaches its midpoint. Higher therefore signals a need for much substance. The term kinetic solubility denotes the concentration staying in solution when a stock, usually in DMSO, is diluted into the medium. `Cn1c2c(c3cnn(Cc4cc[nH]n4)c(=O)c31)CCN(S(=O)(=O)c1ccccc1)C2` [Example 12, 3-((1H-pyrazol-3-yl)methyl)-5-methyl-7-(phenylsulfonyl)-3,5,6,7,8,9-hexahydro-4H-pyrido[4′,3′:4,5]pyrrolo[2,3-d]pyridazin-4-one]: at recombinant human PKM2, the EC50 is 1.49 µM and the maximal effect (Emax) came to 79.7%. Besides, in the series with A549 cells, 0.0135 µM corresponded to half-maximal inhibition (IC50). Moreover, on recombinant human PKLR, the half-maximal effective concentration (EC50) fell in the range of 0.06 to 0.32 µM and the maximal effect (Emax) lay in the range of 100 to 117%. The solubility (kinetic) at 1.5 h in series [1] worked out at 61.6 µg/mL (≈ 145 µM).
`COc1cccc(Cn2ncc3c4c(n(C)c3c2=O)CN(S(C)(=O)=O)CC4)c1F` [Example 5, 3-(2-fluoro-3-methoxybenzyl)-5-methyl-7-(methylsulfonyl)-3,5,6,7,8,9-hexahydro-4H-pyrido[4′,3′:4,5]pyrrolo[2,3-d]pyridazin-4-one]: the EC50 was 0.591 µM at recombinant human PKM2 and 0.06 to 0.32 µM on recombinant human PKLR. The Emax at recombinant human PKM2 was 96.7%; on recombinant human PKLR it was less than 90%. Also, half-maximal inhibition in the series on A549 cells (IC50) was put at 0.0133 µM. Moreover, the kinetic solubility at 1.5 h in series [1] turned out to be 5.13 µg/mL (≈ 12.2 µM).
Regarding `COc1ccc(Cn2ncc3c4c(n(C)c3c2=O)CN(S(C)(=O)=O)CC4)cn1` [Example 2, 3-((6-methoxypyridin-3-yl)methyl)-5-methyl-7-(methylsulfonyl)-3,5,6,7,8,9-hexahydro-4H-pyrido[4′,3′:4,5]pyrrolo[2,3-d]pyridazin-4-one], at recombinant human PKM2, the EC50 is 0.305 µM and the maximal effect (Emax) was found to be 93.7%. The compound further had a 50% inhibitory concentration (IC50) in the series with A549 cells of 0.0045 µM. At recombinant human PKLR, the 50% effective concentration (EC50) lay in the range of 0.06 to 0.32 µM and the Emax is 100 to 117%. The “Kinetic solubility (Ksol);” value in series [1] (1.5 h) came to 36.19 µg/mL. In series [1], this compound had a kinetic solubility at 1.5 h of 36.1 µg/mL (≈ 89.5 µM).
In the case of `COc1cc(F)c(Cn2ncc3c4c(n(C)c3c2=O)CN(S(C)(=O)=O)CC4)c(F)c1` [Example 6, 3-(2,6-difluoro-4-methoxybenzyl)-5-methyl-7-(methylsulfonyl)-3,5,6,7,8,9-hexahydro-4H-pyrido[4′,3′:4,5]pyrrolo[2,3-d]pyridazin-4-one], at recombinant human PKM2, the EC50 was found to be 0.317 µM and the Emax came to 85.3%. This compound also yielded a half-maximal inhibitory concentration (IC50) in the series with A549 cells of 0.0168 µM. For the same compound, at recombinant human PKLR, the EC50 was 0.0435 to 0.06 µM and the Emax was less than 90%. Also, the “Kinetic solubility (Ksol); (μg/ml)” value in series [1] (1.5 h) is given as 0.87* μg/ml. For the same compound, in series [1], the solubility (kinetic) at 1.5 h amounted to 0.64 µg/mL (≈ 1.46 µM).
With “(3-((1H-pyrrolo[2,3-c]pyridin-3-yl)methyl)-N-ethyl-5-methyl-4-oxo-5,6,8,9-tetrahydro-3H-pyrido[4′,3′:4,5]pyrrolo[2,3-d]pyridazine-7(4H)-sulfonamide [Example 30]”, the concentration giving a half-maximal response (EC50) at recombinant human PKM2 was 0.083 µM. For the same compound, the “hPKM2 Emax (%)” value on recombinant human PKM2 (percentage activation normalised to DMSO vehicle (LOW) and 5 μM TEPP-46 (HIGH)) was 62.2%. Further, the “Kinetic solubility (Ksol);” value in series [2] was 30.29 µg/mL.
Turning to `Cc1ncc(S(=O)(=O)N2CCc3c(n(C)c4c(=O)n(Cc5cccc(N)c5)ncc34)C2)s1` [Example 10, 3-(3-aminobenzyl)-5-methyl-7-((2-methylthiazol-5-yl)sulfonyl)-3,5,6,7,8,9-hexahydro-4H-pyrido[4′,3′:4,5]pyrrolo[2,3-d]pyridazin-4-one], on recombinant human PKM2, the EC50 is 4.68 µM and the maximal effect (Emax) worked out at 72%. The same compound returned a concentration for half-maximal inhibition (IC50) in the series on A549 cells of 0.117 µM. In addition, on recombinant human PKLR, the concentration giving a half-maximal response (EC50) was greater than 0.32 µM and the Emax fell in the range of 90 to 100%. For the same compound, the kinetic solubility at 1.5 h in series [1] was 17.1 µg/mL (≈ 36.4 µM).
Turning to `CC(=O)N1CCc2c(n(C)c3c(=O)n(Cc4cccc(N)c4)ncc23)C1` [Example 8, 7-acetyl-3-(3-aminobenzyl)-5-methyl-3,5,6,7,8,9-hexahydro-4H-pyrido [4′,3′:4,5]pyrrolo[2,3-d]pyridazin-4-one], on recombinant human PKM2, the EC50 stood at 1.74 µM and the Emax was determined as 83.1%. Further, the IC50 in the series on A549 cells was 0.0254 µM. For the same compound, on recombinant human PKLR, the 50% effective concentration (EC50) was greater than 0.32 µM and the Emax was less than 90%. In addition, in series [1], the solubility (kinetic) at 1.5 h is greater than 70.3 µg/mL.
Regarding `Cn1c2c(c3cnn(Cc4cccc(N)c4)c(=O)c31)CCN(S(=O)(=O)c1ccccc1)C2` [Example 11, 3-(3-aminobenzyl)-5-methyl-7-(phenylsulfonyl)-3,5,6,7,8,9-hexahydro-4H-pyrido[4′,3′:4,5]pyrrolo[2,3-d]pyridazin-4-one], at recombinant human PKM2, the EC50 is 0.846 µM and the maximal response (Emax) was found to be 88.4%. The same compound returned an IC50 in the series with A549 cells of 0.014 µM. Also, on recombinant human PKLR, the EC50 was in the range of 0.06 to 0.32 µM and the maximal response (Emax) is less than 90%. In series [1], this compound yielded a solubility (kinetic) at 1.5 h of 9.9 µg/mL (≈ 22 µM).
For the compound `Cn1c2c(c3cnn(Cc4cccc(N)c4)c(=O)c31)CCN(S(C)(=O)=O)C2` [Example 7, 3-(3-aminobenzyl)-5-methyl-7-(methylsulfonyl)-3,5,6,7,8,9-hexahydro-4H-pyrido[4′,3′:4,5]pyrrolo[2,3-d]pyridazin-4-one], on recombinant human PKM2, the EC50 was 0.346 µM and the maximal response (Emax) came to 107%. In the series with A549 cells, it took 0.0009 µM to reach half-maximal inhibition (IC50). On recombinant human PKLR, the 50% effective concentration (EC50) was 0.06 to 0.32 µM and the maximal effect (Emax) is 100 to 117%. Also, in series [1], the solubility (kinetic) at 1.5 h amounted to 72.2 µg/mL (≈ 186 µM).
